We go through 26 molecules from US20230203060A1 (GENFLEET THERAPEUTICS (SHANGHAI) INC., priority 2020, published 2023).

Test [1] deals with KRAS G12C mutant NCI-H358 cells. Put plainly: Cell proliferation inhibition experiment, 3D spheroid, CellTiter-Glo, NCI-H358. In kind it is cell-based, human. The following applies: Homo sapiens, NCI-H358, 120 h, NCI-H358 (KRAS G12C mutant) 3D spheroid, 5 days with compound, CellTiter-Glo; read-out: H358 IC50. The essentials: (§1)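 IC50 values come from four-parameter fits of proliferation inhibition, measured by CellTiter-Glo after 5-day compound exposure. Spheroids of H358 (800 cells) or A549 (400 cells) were formed overnight in 2% FBS medium; DMSO held at 0.1%, doses spaced 3.16-fold.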
Background: Cellular ATP, detected with luciferase, serves as a proxy for viable cell number.

Test [2] concerns A549 cells (KRAS G12S mutant). Put plainly: Cell proliferation inhibition experiment, 3D spheroid, CellTiter-Glo, A549. In kind it is cell-based, human. The following applies: Homo sapiens, A549, 120 h, A549 (KRAS G12S mutant) 3D spheroid, 5 days with compound, CellTiter-Glo; read-out: A549 IC50. The essentials:
as §1

Usually IC50 stands for the point on the concentration scale where inhibition reaches its midpoint. As for `C=CC(=O)N1CCN2C(=O)c3c(N4CC(C(=O)O)CC4(C)C)nc(-c4c(O)cccc4F)c(Cl)c3OC[C@H]2C1` (stereo partly drawn) [Z458, 1-((6aR)-8-acryloyl-4-chloro-3-(2-fluoro-6-hydroxyphenyl)-12-oxo-6,6a,7,8,9,10-hexahydro-12H-pyrazino[2,1-c]pyrido[3,4-f][1,4]oxazepin-1-yl)-5,5-dimethylpyrrolidine-3-carboxylic acid], the IC50 in test [1] was 0.305 µM; in test [2], above 30 µM.

For the molecule `C=CC(=O)N1CCN2C(=O)c3c(N4CCC(OC)C4(C)C)nc(-c4c(N)cccc4F)c(Cl)c3OC[C@H]2C1` (stereo partly drawn) [Z506, (6aR)-8-acryloyl-3-(2-amino-6-fluorophenyl)-4-chloro-1-(3-methoxy-2,2-dimethylpyrrolidin-1-yl)-6,6a,7,8,9,10-hexahydro-12H-pyrazino[2,1-c]pyrido[3,4-f][1,4]oxazepin-12-one], the IC50 in test [1] came out at 0.0008 µM; in test [2], 9.19 µM.

For the molecule `C=CC(=O)N1CCN2C(=O)c3c(N4C[C@@H](N5CCC5)CC4(C)C)nc(-c4ccccc4F)c(Cl)c3OC[C@H]2C1` (single isomer, unassigned) [Z471-1], the results for the IC50 in test [1] and in test [2] were 0.007 µM and 2.77 µM, respectively.

`C=CC(=O)N1CCN2C(=O)c3c(N4CCN(C)C[C@@H]4C)nc(-c4c(F)cccc4Cl)c(Cl)c3OC[C@H]2C1` [Z547, (6aR)-8-acryloyl-4-chloro-3-(2-chloro-6-fluorophenyl)-1-((S)-2,4-dimethylpiperazin-1-yl)-6,6a,7,8,9,10-hexahydro-12H-pyrazino[2,1-c]pyrido[3,4-f][1,4]oxazepin-12-one]: the values for the IC50 in test [1] and in test [2] were 0.0193 µM and 8.16 µM, respectively.

In the case of `C=CC(=O)N1CCN2C(=O)c3c(N4C[C@H](N(C)CCO)CC4(C)C)nc(-c4ccccc4F)c(Cl)c3OC[C@H]2C1` (single isomer, unassigned) [Z658-2], the IC50 was determined as 0.012 µM in test [1] and 4.72 µM in test [2].

With `C=CC(=O)N1CCN2C(=O)c3c(N4C[C@H](N5CCN(C)CC5)CC4(C)C)nc(-c4ccccc4F)c(Cl)c3OC[C@H]2C1` (single isomer, unassigned) [Z454-2], the IC50 in test [1] was determined as 0.0072 µM; in test [2], 2.66 µM.

As for `C=CC(=O)N1CCN2C(=O)c3c(N4C[C@H](N(C)C)CC4(C)C)nc(-c4c(F)ccc(F)c4O)c(Cl)c3OC[C@H]2C1` (single isomer, unassigned) [Z475-2], the half-inhibitory concentration (IC50) was 0.008 µM in test [1] and 5.87 µM in test [2].

As for `C=CC(=O)N1CCN2C(=O)c3c(N4C[C@@H](N5CCN(C)CC5)CC4(C)C)nc(-c4ccccc4F)c(Cl)c3OC[C@H]2C1` (single isomer, unassigned) [Z454-1], the IC50 came out at 0.0012 µM in test [1] and 2.63 µM in test [2].

Turning to `C=CC(=O)N1CCN2C(=O)c3c(N4CC(N(C)C)CC4(C)C)nc(-c4ccccc4F)c(Cl)c3OC[C@H]2C1` (single isomer, unassigned) [Z453-2], the half-maximal inhibitory concentration (IC50) in test [1] amounted to 0.0166 µM; in test [2], 6.71 µM.

As for `C=CC(=O)N1CCN2C(=O)c3c(N4C[C@@H](N5CCN(C)CC5)CC4(C)C)nc(-c4c(O)cccc4F)c(Cl)c3OC[C@H]2C1` (single isomer, unassigned) [Z469-1], the concentration for half-maximal inhibition (IC50) came to 0.0005 µM in test [1] and 5.23 µM in test [2].

In the case of `C=CC(=O)N1CCN2C(=O)c3c(N4C[C@H](N5CC(C(F)(F)F)C5)CC4(C)C)nc(-c4ccccc4F)c(Cl)c3OC[C@H]2C1` (single isomer, unassigned) [Z608-1], the values for the IC50 in test [1] and in test [2] were 0.0995 µM and 2.95 µM, respectively.

On to `C=CC(=O)N1CCN2C(=O)c3c(N4CC(N(C)CCO)CC4(C)C)nc(-c4ccccc4F)c(Cl)c3OC[C@H]2C1` (stereo partly drawn) [Z658, (6aR)-8-acryloyl-4-chloro-3-(2-fluorophenyl)-1-(4-((2-hydroxyethyl)(methyl)amino)-2,2-dimethylpyrrolidin-1-yl)-6,6a,7,8,9,10-hexahydro-12H-pyrazino[2,1-c]pyrido[3,4-f][1,4]oxazepin-12-one], for which the half-inhibitory concentration (IC50) in test [1] was determined as 0.0026 µM; in test [2] it was 5.02 µM.

For the molecule `C=CC(=O)N1CCN2C(=O)c3c(OC4CCCN(C)C4)nc(-c4c(O)cccc4F)c(Cl)c3OC[C@H]2C1` (stereo partly drawn) [Z43, (6aR)-8-acryloyl-4-chloro-3-(2-fluoro-6-hydroxyphenyl)-1-((1-methylpiperidin-3-yl)oxy)-6,6a,7,8,9,10-hexahydro-12H-pyrazino[2,1-c]pyrido[3,4-f][1,4]oxazepin-12-one], the half-inhibitory concentration (IC50) in test [1] was 0.039 µM; in test [2] it was above 30 µM.

For `C=CC(=O)N1CCN2C(=O)c3c(N4CC(N5CCN(C)CC5)CC4(C)C)nc(-c4ccccc4F)c(Cl)c3OC[C@H]2C1` (stereo partly drawn) [Z454, (6aR)-8-acryloyl-4-chloro-1-(2,2-dimethyl-4-(4-methylpiperazin-1-yl)pyrrolidin-1-yl)-3-(2-fluorophenyl)-6,6a,7,8,9,10-hexahydro-12H-pyrazino[2,1-c]pyrido[3,4-f][1,4]oxazepin-12-one], the values for the concentration for half-maximal inhibition (IC50) in test [1] and in test [2] were 0.002 µM and 2.13 µM, respectively.

`C=CC(=O)N1CCN2C(=O)c3c(N4C[C@@H](N5CC(F)C5)CC4(C)C)nc(-c4ccccc4F)c(Cl)c3OC[C@H]2C1` [Z480-1, (R)-8-acryloyl-4-chloro-1-((S)-4-(3-fluoroazetidin-1-yl)-2,2-dimethylpyrrolidin-1-yl)-3-(2-fluorophenyl)-6,6a,7,8,9,10-hexahydro-12H-pyrazino[2,1-c]pyrido[3,4-f][1,4]oxazepin-12-one]: the IC50 in test [1] was 0.0034 µM; in test [2] it was 3.98 µM.

As to `C=CC(=O)N1CCN2C(=O)c3c(N4C[C@@H](O)CC4(C)C)nc(-c4ccccc4F)c(F)c3OC[C@H]2C1` (single isomer, unassigned) [Z408-1], the IC50 in test [1] was determined as 0.0217 µM; in test [2] it was 9.25 µM.

For `C=CC(=O)N1CCN2C(=O)c3c(N4C[C@@H](NC)CC4(C)C)nc(-c4ccccc4F)c(Cl)c3OC[C@H]2C1` (single isomer, unassigned) [Z661-1], the 50% inhibitory concentration (IC50) amounted to 0.006 µM in test [1] and 2.9 µM in test [2].

In the case of `C=CC(=O)N1CCN2C(=O)c3c(N4CCN(C)[C@@H](C)[C@@H]4C)nc(-c4ccccc4F)c(Cl)c3OC[C@H]2C1` [Z653, (R)-8-acryloyl-4-chloro-3-(2-fluorophenyl)-1-((2S,3S)-2,3,4-trimethylpiperazin-1-yl)-6,6a,7,8,9,10-hexahydro-12H-pyrazino[2,1-c]pyrido[3,4-f][1,4]oxazepin-12 (6aH)-one], the IC50 is 0.0275 µM in test [1] and 9.31 µM in test [2].

In the case of `C=CC(=O)N1CCN2C(=O)c3c(N4CC(O)CC4(C)C)nc(-c4c(O)cccc4F)c(Cl)c3OC[C@H]2C1` (stereo partly drawn) [Z50, (6aR)-8-amyloyl-4-chloro-3-(2-fluoro-6-hydroxyphenyl)-1-(4-hydroxy-2,2-dimethylpyrrolidin-1-yl)-6,6a,7,8,9,10-hexahydro-12H-pyrazino[2,1-c]pyrido[3,4-f][1,4]oxazepin-12-one], the results for the IC50 in test [1] and in test [2] were 0.002 µM and above 5 µM, respectively.

With `C=CC(=O)N1CCN2C(=O)c3c(N4CCC[C@H]4C)nc(-c4c(O)cccc4F)c(Cl)c3OC[C@H]2C1` [Z48, (6aR)-8-acryloyl-1-((R)-2-methylpyrrolidin-1-yl)-4-chloro-3-(2-fluoro-6-hydroxyphenyl)-6,6a,7,8,9,10-hexahydro-12H-pyrazino[2,1-c]pyrido[3,4-f][1,4]oxazepin-12-one], the figures for the half-inhibitory concentration (IC50) in test [1] and in test [2] were 0.015 µM and above 5 µM, respectively.

As to `C=CC(=O)N1CCN2C(=O)c3c(N4C[C@@H](N5CC(C#N)C5)CC4(C)C)nc(-c4ccccc4F)c(Cl)c3OC[C@H]2C1` (single isomer, unassigned) [Z637-2], the IC50 in test [1] amounted to 0.0045 µM; in test [2], 2.52 µM.

Consider `C=CC(=O)N1CCN2C(=O)c3c(N4C[C@H](N(C)C)CC4(C)C)nc(-c4cccc(C)c4F)c(Cl)c3OC[C@H]2C1` (single isomer, unassigned) [Z472-2], for which the concentration for half-maximal inhibition (IC50) in test [1] was 0.008 µM; in test [2], 1.65 µM.

Regarding `C=CC(=O)N1CCN2C(=O)c3c(N4CC(N5CCN(C)CC5)CC4(C)C)nc(-c4ccccc4F)c(F)c3OC[C@H]2C1` (stereo partly drawn) [Z474, (6aR)-8-acryloyl-1-(2,2-dimethyl-4-(4-methylpiperazin-1-yl)pyrrolidin-1-yl)-4-fluoro-3-(2-fluorophenyl)-6,6a,7,8,9,10-hexahydro-12H-pyrazino[2,1-c]pyrido[3,4-f][1,4]oxazepin-12-one], the IC50 in test [1] turned out to be 0.009 µM; in test [2], 6.71 µM.

Consider `C=CC(=O)N1CCN2C(=O)c3c(N4C[C@@H](N(C)CC(F)F)CC4(C)C)nc(-c4ccccc4F)c(Cl)c3OC[C@H]2C1` (single isomer, unassigned) [Z659-1], for which the IC50 in test [1] amounted to 0.005 µM; in test [2] it was 6.18 µM.

In the case of `C=CC(=O)N1CCN2C(=O)c3c(N4C[C@H](N(C)CC(F)(F)F)CC4(C)C)nc(-c4ccccc4F)c(Cl)c3OC[C@H]2C1` (single isomer, unassigned) [Z493], the values for the IC50 in test [1] and in test [2] were 0.027 µM and 7.25 µM, respectively.

For `C=CC(=O)N1CCN2C(=O)c3c(N4CCN(C)C[C@@H]4C)nc(-c4c(F)cccc4C(F)F)c(Cl)c3OC[C@H]2C1` [Z456, (6aR)-8-acryloyl-4-chloro-3-(2-(difluoromethyl)-6-fluorophenyl)-1-((S)-2,4-dimethylpiperazin-1-yl)-6,6a,7,8,9,10-hexahydro-12H-pyrazino[2,1-c]pyrido[3,4-f][1,4]oxazepin-12-one], the IC50 was determined as 0.0094 µM in test [1] and 9.73 µM in test [2].
